Measurements from US5530126A, “Process for the preparation of substituted 6-(pyrazol-3yl)-1,4-benzoxazin-3-ones” (Monsanto Company, priority 1994, dated 1996).

Columns and labels:
Format in all cases: in vivo
Velvetleaf [1] = experiment: Post-emergence herbicide test; details: Abutilon theophrasti, read-out: % plant inhibition (Vele); for inhibition at 1120 g/ha: 1.12 kg/ha
Method in brief: (§1)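 Plants grown from seed or vegetative propagules in greenhouse soil pans were sprayed at two to three weeks of age by atomizer at 170.3 kPa, delivering 1870 L/Ha containing about 0.4% v/v emulsifier. Injury versus untreated controls was scored as percent inhibition at about 11 days, sometimes again near 25 days.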

Morningglory [2] = experiment: Post-emergence herbicide test; details: Ipomoea, read-out: % plant inhibition (Mogl); for inhibition at 1120 g/ha: 1.12 kg/ha
Method in brief: as §1

Cocklebur [3] = experiment: Post-emergence herbicide test; details: Xanthium strumarium, read-out: % plant inhibition (Cobu); for inhibition at 1120 g/ha: 1.12 kg/ha
Method in brief: as §1

Annual bluegrass [4] = experiment: Post-emergence herbicide test; details: read-out: % plant inhibition (Anbg); for inhibition at 1120 g/ha: 1.12 kg/ha
Method in brief: as §1

Barnyardgrass [5] = experiment: Post-emergence herbicide test; details: Echinochloa crus-galli, read-out: % plant inhibition (Bygr); for inhibition at 1120 g/ha: 1.12 kg/ha
Method in brief: as §1

Downy Brome [6] = experiment: Post-emergence herbicide test; details: Bromus tectorum, read-out: % plant inhibition (Dobr); for inhibition at 1120 g/ha: 1.12 kg/ha
Method in brief: as §1

Indian Mustard [7] = experiment: Post-emergence herbicide test; details: Brassica juncea, read-out: % plant inhibition (Inmu); for inhibition at 1120 g/ha: 1.12 kg/ha
Method in brief: as §1

Seedling johnsongrass [8] = experiment: Post-emergence herbicide test; details: Sorghum halepense, read-out: % plant inhibition (Sejg); for inhibition at 1120 g/ha: 1.12 kg/ha
Method in brief: as §1

Wild buckwheat [9] = experiment: Post-emergence herbicide test; details: Fallopia convolvulus, read-out: % plant inhibition (Wibw); for inhibition at 1120 g/ha: 1.12 kg/ha
Method in brief: as §1

Yellow nutsedge [10] = experiment: Post-emergence herbicide test; details: Cyperus, read-out: % plant inhibition (Yens); for inhibition at 1120 g/ha: 1.12 kg/ha
Method in brief: as §1

Velvetleaf [11] = experiment: Pre-emergence herbicide test; details: Abutilon theophrasti, read-out: % plant inhibition (Vele); for inhibition at 1120 g/ha: 1.12 kg/ha
Method in brief: (§2)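 Pre-emergence soil application: compound in acetone or water carrier sprayed onto seeded topsoil surface, overlaid with untreated soil. Pans kept on greenhouse bench, watered from below. Read-out % inhibition, ~11 days post-treatment.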

Morningglory [12] = experiment: Pre-emergence herbicide test; details: Ipomoea, read-out: % plant inhibition (Mogl); for inhibition at 1120 g/ha: 1.12 kg/ha
Method in brief: as §2

Cocklebur [13] = experiment: Pre-emergence herbicide test; details: Xanthium strumarium, read-out: % plant inhibition (Cobu); for inhibition at 1120 g/ha: 1.12 kg/ha
Method in brief: as §2

Annual bluegrass [14] = experiment: Pre-emergence herbicide test; details: read-out: % plant inhibition (Anbg); for inhibition at 1120 g/ha: 1.12 kg/ha
Method in brief: as §2

Barnyardgrass [15] = experiment: Pre-emergence herbicide test; details: Echinochloa crus-galli, read-out: % plant inhibition (Bygr); for inhibition at 1120 g/ha: 1.12 kg/ha
Method in brief: as §2

Downy Brome [16] = experiment: Pre-emergence herbicide test; details: Bromus tectorum, read-out: % plant inhibition (Dobr); for inhibition at 1120 g/ha: 1.12 kg/ha
Method in brief: as §2

Indian Mustard [17] = experiment: Pre-emergence herbicide test; details: Brassica juncea, read-out: % plant inhibition (Inmu); for inhibition at 1120 g/ha: 1.12 kg/ha
Method in brief: as §2

Seedling johnsongrass [18] = experiment: Pre-emergence herbicide test; details: Sorghum halepense, read-out: % plant inhibition (Sejg); for inhibition at 1120 g/ha: 1.12 kg/ha
Method in brief: as §2

Wild buckwheat [19] = experiment: Pre-emergence herbicide test; details: Fallopia convolvulus, read-out: % plant inhibition (Wibw); for inhibition at 1120 g/ha: 1.12 kg/ha
Method in brief: as §2

Yellow nutsedge [20] = experiment: Pre-emergence herbicide test; details: Cyperus, read-out: % plant inhibition (Yens); for inhibition at 1120 g/ha: 1.12 kg/ha
Method in brief: as §2

Row | Structure (SMILES) | inhibition at 1120 g/ha (Velvetleaf [1]) [%] | inhibition at 1120 g/ha (Morningglory [2]) [%] | inhibition at 1120 g/ha (Cocklebur [3]) [%] | inhibition at 1120 g/ha (Annual bluegrass [4]) [%] | inhibition at 1120 g/ha (Barnyardgrass [5]) [%] | inhibition at 1120 g/ha (Downy Brome [6]) [%] | inhibition at 1120 g/ha (Indian Mustard [7]) [%] | inhibition at 1120 g/ha (Seedling johnsongrass [8]) [%] | inhibition at 1120 g/ha (Wild buckwheat [9]) [%] | inhibition at 1120 g/ha (Yellow nutsedge [10]) [%] | inhibition at 1120 g/ha (Velvetleaf [11]) [%] | inhibition at 1120 g/ha (Morningglory [12]) [%] | inhibition at 1120 g/ha (Cocklebur [13]) [%] | inhibition at 1120 g/ha (Annual bluegrass [14]) [%] | inhibition at 1120 g/ha (Barnyardgrass [15]) [%] | inhibition at 1120 g/ha (Downy Brome [16]) [%] | inhibition at 1120 g/ha (Indian Mustard [17]) [%] | inhibition at 1120 g/ha (Seedling johnsongrass [18]) [%] | inhibition at 1120 g/ha (Wild buckwheat [19]) [%] | inhibition at 1120 g/ha (Yellow nutsedge [20]) [%] | other results
1 | CNC(=O)Cc1cc(-c2nn(C)c(C(F)(F)F)c2Cl)c(F)cc1Cl [Compound 114] |  |  |  |  |  |  |  |  |  |  |  |  |  |  |  |  |  |  |  |  | inhibition at 11210 g/ha (Velvetleaf [1]; 11.21 kg/ha): 50%; inhibition at 11210 g/ha (Morningglory [2]; 11.21 kg/ha): 50%; inhibition at 11210 g/ha (Cocklebur [3]; 11.21 kg/ha): 20%; inhibition at 11210 g/ha (Annual bluegrass [4]; 11.21 kg/ha): 10%; inhibition at 11210 g/ha (Barnyardgrass [5]; 11.21 kg/ha): 0%; inhibition at 11210 g/ha (Downy Brome [6]; 11.21 kg/ha): 0%; inhibition at 11210 g/ha (Indian Mustard [7]; 11.21 kg/ha): 10%; inhibition at 11210 g/ha (Seedling johnsongrass [8]; 11.21 kg/ha): 0%; inhibition at 11210 g/ha (Wild buckwheat [9]; 11.21 kg/ha): 60%; inhibition at 11210 g/ha (Yellow nutsedge [10]; 11.21 kg/ha): 10%; inhibition at 11210 g/ha (Velvetleaf [11]; 11.21 kg/ha): 100%; inhibition at 11210 g/ha (Morningglory [12]; 11.21 kg/ha): 100%; inhibition at 11210 g/ha (Cocklebur [13]; 11.21 kg/ha): 70%; inhibition at 11210 g/ha (Annual bluegrass [14]; 11.21 kg/ha): 100%; inhibition at 11210 g/ha (Barnyardgrass [15]; 11.21 kg/ha): 100%; inhibition at 11210 g/ha (Downy Brome [16]; 11.21 kg/ha): 60%; inhibition at 11210 g/ha (Indian Mustard [17]; 11.21 kg/ha): 100%; inhibition at 11210 g/ha (Seedling johnsongrass [18]; 11.21 kg/ha): 90%; inhibition at 11210 g/ha (Wild buckwheat [19]; 11.21 kg/ha): 100%; inhibition at 11210 g/ha (Yellow nutsedge [20]; 11.21 kg/ha): 90%
2 | Cn1nc(-c2cc(C3OCCS3)c(Cl)cc2F)c(Cl)c1C(F)(F)F (stereo not drawn) [Compound 102] | 100 | 100 | 60 | 90 | 90 | 100 | 100 | 100 | 100 | 20 | 100 | 100 | 30 | 60 | 80 | 80 | 100 | 90 | 100 | 20 | 
3 | CC(=NOCC(N)=O)c1cc(-c2nn(C)c(C(F)(F)F)c2Cl)c(F)cc1Cl [Compound 105] | 80 | 40 | 20 | 30 | 20 | 0 | 30 | 20 | 100 | 20 | 90 | 80 | 10 | 0 | 70 | 40 | 80 | 60 | 80 | 20 | 
